Experiment [1] has as its system permanent focal cerebral ischemia (pdMCAO) in AngII-induced hypertensive mice. Description: Brain infarct volume and swelling after pdMCAO in AngII-induced hypertensive mice. It counts as in vivo, mouse. The following applies: 24 h post-pdMCAO, i.p., half dose at 3 h and 8 h after pdMCAO. The procedure:
FIG. 3: Effects of NKCC1 inhibitors against the worsened ischemic stroke in AngII-induced hypertensive mice after pdMCAO (see Example 3). (A) Experimental protocol in AngII-induced hypertensive C57/B6 mice. Permanent distal middle cerebral artery occlusion (pdMCAO) was induced in mice at day 14 post-AngII infusion. DMSO, BMT or STS66 was administered in mice via i.p. with the initial half dose at 3 h and the second half dose at 8 h after pdMCAO. (B) Representative TTC-stained mouse coronal brain sections at 2-8 mm posterior of the frontal pole were shown. TTC staining was performed at 24 h post pdMCAO. Scale: 5 mm. (C) Brain infarct volume was calculated. Data are mean±SD. Saline (n=4), AngII (n=5); *p<0.05 vs. saline control.
Permanent focal cerebral ischemia was induced by permanent occlusion of the distal middle cerebral artery (pdMCAO) in mice (Suenaga J, et al., 2015). Under anesthesia as described above, a skin incision at the midline of the neck was made. After being separated from the vagal nerve, the left CCA was exposed and occluded by ligation and the skin was sutured. Another skin incision (1 cm) was made between the left eye and the ear using fine operation scissors. The temporal muscle was identified and detached from the skull in its apical and dorsal part without totally removing the muscle by using the forceps. The MCA below the transparent skull in the rostral part of the temporal area, dorsal to the retro-orbital sinus was identified. If the MCA bifurcation is not visible (due to an anatomical normal variation), the vessel most rostral was identified. The skull above the MCA branch was thinned out with the drill until it has a thin and translucent texture. The artery, proximal and distal to the MCA bifurcation, was coagulated with the electrocoagulation forceps (in a bipolar mode at 7 W). The temporal muscle was relocated to its position and the burr hole was covered with wax and the skin wound was sutured and infiltrated with analgesia bupivacaine (100 μl 0.25%) topically. The animal was placed in a cage and monitored for recovery from anesthesia. […]
At 24 h post-reperfusion, mice were anesthetized with 5% isoflurane and then decapitated. […] Ischemic lesions were traced in each slice in a blinded manner, and the total volume of infarction was calculated with correction for edema, as described by Swanson et al., 1990 using ImageJ software. […] Brain swelling was determined with the following formula. […]
The efficacy of NKCC1 inhibitors was then tested in AngII-induced hypertensive mice after permanent MCAO model (pdMCAO), which is more clinically relevant to the majority ischemic stroke patients (McBride D W, et al., 2017). Brain infarct volume and swelling were measured at 24 h after pdMCAO. […]

Experiment [2] deals with transient focal cerebral ischemia (tMCAO) in mice. Description: Grid walking foot-fault test after tMCAO. As to conditions: day 3 post-stroke. It is filed as in vivo, mouse. From the text: FIGS. 2A-2D: Efficacy of NKCC1 inhibitors on improving neurological function in mice after tMCAO (see Example 3). (A) Neurological score, (B) corner test, (C) foot-fault test, and (D)-(E) adhesive tape test during 1-14 day after tMCAO. Data are mean±SD, n=4-9. *p<0.05 for DMSO vs STS66, **p<0.05 for DMSO vs STS5, ***p<0.05 for DMSO vs BMT, #p<0.05 for BMT vs STS66, ###p<0.05 for STS5 vs STS66.
Transient focal cerebral ischemia was induced in mice by intraluminal occlusion of the left middle cerebral artery (MCA) for 50 min as described previously (Chen H et al., 2005). Mice were anesthetized with 3% isoflurane in 70%: 30% N2O/O2 until they were unresponsive to the tail pinch test. Animals were then fitted with a nose cone blowing 1.5% isoflurane for anesthesia maintenance. The left common carotid artery was exposed and the occipital artery branches of the external carotid artery were isolated and coagulated. The internal carotid artery was isolated and the extracranial branch was dissected and ligated. […]
The grid walking test is sensitive to deficits in descending motor control. […] The data were expressed as the number of foot fault errors made by the forelimbs contralateral to the injured hemisphere as a percentage of total steps (Jun Zhang, et al., 2017).

With `CCCCNc1cc(C(=O)O)cc(S(N)(=O)=O)c1Oc1ccccc1` [BMT, 3-(butylamino)-4-phenoxy-5-sulfamoylbenzoic acid, reference compound], in experiment [1], the “brain swelling (edema)” value is recorded as 7.1±1.1% and the infarct volume came to 22.4±2.9 mm^3.
Regarding `CCCCNc1cc(CNCC(F)(F)F)cc(S(N)(=O)=O)c1Oc1ccccc1` [STS66, 3-(Butylamino)-2-phenoxy-5-[(2,2,2-trifluoroethylamino)methyl]benzenesulfonamide], in experiment [1], the “brain swelling (edema)” value is given as 2.4±1.1% and the infarct volume was 13.3±2.5 mm^3. For the same molecule, in experiment [2], the foot-fault rate turned out to be 12.5±2.5%.

Values taken from patent US20260132103A1, “Bumetanide Derivatives for the Therapy of Stroke and Other Neurological Diseases/Disorders Involving NKCCs” (University of Pittsburgh - Of the Commonwealth System of …, priority 2018, published 2026).
